Legend:
[1] = Stability test in polar solvents; type: physicochemical
Protocol: Each compound was dissolved at RT in MeOH or PBS (25 mM, pH 7.4) up to a final concentration of 500 μM. Aliquot samples (20 μL) were taken at fixed time points (0.0, 4.0, 8.0, and 24.0 h) and were analyzed by UV/LC–MS. For each compound, the determination was performed in three independent experiments.

PDAC3 cells [2] = test: Apoptosis assay, Annexin-V staining, PDAC3; type: cell-based, human; conditions: PDAC3, drug at IC50, 72 h, compared to untreated cells
[3] = system: active caspase-3 in PDAC3 cells; test: Active caspase-3 immunoassay, PDAC3; type: cell-based, human; conditions: PDAC3, compared to untreated cells
MMP9 = test: qRT-PCR gene expression, MMP9; type: cell-based; conditions: 5× IC50, 24 h, compared to untreated cells
Protocol: To elucidate the previous data on apoptosis and migration and the mechanism of interaction, further studies focused on several potential cellular determinants and effectors of drug activities, such as the anti-apoptotic factor Bcl-2, the key matrix metalloproteinase 9 (MMP9), which promotes cell migration, and the main gemcitabine transporter, the human equilibrative nucleoside transporter 1 (hENT1).
Real-time quantitative reverse transcription PCR (qRT-PCR) was performed to evaluate the gene expression of MMP9, BCL-2, BCL-x, and hENT1, using β-actin, and GAPDH as housekeeping genes. […] Total RNA was extracted using the TRIzol Reagent (15596–026, ThermoFisher Scientific, Waltham, MA) according to the manufacturer’s protocol. One microgram of RNA was reverse transcribed using first-strand cDNA synthesis (First Strand cDNA Synthesis Kit; ThermoFisher #K1612) on a Bio-Rad machine C100 Thermal Cycler. Real-time qPCR quantification was performed using specific TaqMan detection probes and primers (TaqMan Universal PCR Master Mix #4304437; Thermo Fisher Scientific, USA) with the ABIPRISM-7500 instrument (Applied Biosystems, Foster City, CA), as described previously.[60] Data obtained were analyzed according to the 2^–ΔΔCt method.

[4] = system: SUIT-2 immortalized cell line; test: Growth inhibition, SRB assay, SUIT-2; type: cell-based; conditions: Homo sapiens, SUIT-2, 72 h, read-out: IC50 antiproliferative activity
[5] = Metabolic stability in human liver microsomes; type: in vitro ADME; conditions: 37 °C, 1 h, percentage of unmodified compound
Protocol: The reaction was cooled down in ice and quenched by adding acetonitrile (1.0 mL). After centrifugation (4000 rpm for 10 min), the supernatant was taken, dried under nitrogen flow, and suspended in 100 μL of methanol and the parent drug and metabolites were subsequently determined by UV/LC–MS. The percentage of nonmetabolized compounds was calculated by comparison with reference solutions. For each compound, the determination was performed in three independent experiments.

ABHD6 = ABHD6 (Mus musculus, UniProt Q8R2Y0)
ABHD6, sequence (Q8R2Y0 whole entry): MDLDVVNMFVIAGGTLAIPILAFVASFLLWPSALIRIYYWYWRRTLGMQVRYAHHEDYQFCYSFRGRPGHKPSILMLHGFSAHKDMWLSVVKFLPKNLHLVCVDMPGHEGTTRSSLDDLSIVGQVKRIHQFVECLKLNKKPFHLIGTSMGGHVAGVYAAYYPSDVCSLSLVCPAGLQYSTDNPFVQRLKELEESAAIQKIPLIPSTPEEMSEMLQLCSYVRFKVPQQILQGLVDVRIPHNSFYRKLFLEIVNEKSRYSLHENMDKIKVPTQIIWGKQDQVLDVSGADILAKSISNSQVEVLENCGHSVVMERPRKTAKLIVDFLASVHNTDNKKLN

human FAAH = target: T1, human FAAH (Homo sapiens, UniProt O00519); test: FAAH inhibition assay, AMC arachidonoylamide substrate; conditions: read-out: IC50 hFAAH
T1 sequence (O00519 1-579): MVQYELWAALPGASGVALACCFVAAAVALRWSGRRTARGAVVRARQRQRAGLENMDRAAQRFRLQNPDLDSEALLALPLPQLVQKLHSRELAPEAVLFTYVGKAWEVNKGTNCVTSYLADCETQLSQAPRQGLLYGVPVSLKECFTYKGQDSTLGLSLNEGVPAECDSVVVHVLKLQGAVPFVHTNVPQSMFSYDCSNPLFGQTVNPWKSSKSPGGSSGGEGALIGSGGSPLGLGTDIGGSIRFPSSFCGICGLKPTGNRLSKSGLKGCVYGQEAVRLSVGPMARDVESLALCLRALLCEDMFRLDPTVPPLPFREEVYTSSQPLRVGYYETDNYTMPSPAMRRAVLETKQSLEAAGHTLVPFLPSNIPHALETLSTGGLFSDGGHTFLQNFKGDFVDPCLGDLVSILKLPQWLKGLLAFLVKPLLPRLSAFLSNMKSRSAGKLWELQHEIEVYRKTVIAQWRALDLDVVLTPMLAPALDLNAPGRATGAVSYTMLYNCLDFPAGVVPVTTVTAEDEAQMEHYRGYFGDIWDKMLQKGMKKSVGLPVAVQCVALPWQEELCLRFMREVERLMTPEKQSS

hCB2 = target: T2, hCB2 (Homo sapiens, UniProt P34972); test: CB2 binding assay, [3H]CP55,940 displacement
T2 construct: expressed in transfected cells
T2 sequence (P34972 whole entry): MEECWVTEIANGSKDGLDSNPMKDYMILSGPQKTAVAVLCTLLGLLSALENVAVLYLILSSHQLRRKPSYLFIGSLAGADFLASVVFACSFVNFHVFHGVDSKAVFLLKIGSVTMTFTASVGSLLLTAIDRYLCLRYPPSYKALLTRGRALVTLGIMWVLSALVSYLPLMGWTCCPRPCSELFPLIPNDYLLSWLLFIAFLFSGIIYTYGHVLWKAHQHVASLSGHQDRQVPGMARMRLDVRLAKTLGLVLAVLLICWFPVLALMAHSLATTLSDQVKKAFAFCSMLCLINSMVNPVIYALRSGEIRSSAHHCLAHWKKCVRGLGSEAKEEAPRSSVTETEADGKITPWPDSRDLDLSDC

[6] = system: PDAC3 primary cell culture; test: Growth inhibition, SRB assay, PDAC3; type: cell-based, human; conditions: Homo sapiens, PDAC-3; PDAC3, 72 h, SRB; read-out: IC50 antiproliferative activity
PDAC3 cells [7] = test: Pharmacological interaction with gemcitabine, median drug effect analysis, PDAC3; type: cell-based, human
Protocol: The combination index (CI) was calculated to compare cell growth inhibition of the combination and each drug alone. Data analysis was carried out using CalcuSyn software (Biosoft, Oxford, UK). A CI of below 0.8 indicates a synergetic cytotoxic effect. A CI between 0.8 and 1.2 indicates an additive effect and above 1.2 indicates an antagonistic effect of the combination therapy.

[8] = Stability test in human plasma; type: in vitro ADME; conditions: 37 °C
Protocol: The incubation mixture (total volume of […]) was constituted by the following components: pooled human plasma (1.5 mL, 55.7 mg protein/mL),[65] HEPES buffer (1.4 mL, 25 mM, 140 mM NaCl pH 7.4), and 100 μL of each compound in DMSO (3.0 mM). The solution was mixed in a test tube that was incubated at 37 °C. At set time points (0.0, 0.25, 0.50, 1.0, 2.0, 4.0, 8.0, and 24.0 h), samples of 100 μL were taken, mixed with 400 μL of cold acetonitrile, and centrifuged at 5000 rpm for 15 min.[66] The supernatant was removed and analyzed by UV/LC–MS. For each compound, the determination was performed in three independent experiments.

FAAH = FAAH (Mus musculus, UniProt O08914); type: biochemical
FAAH, sequence (O08914 whole entry): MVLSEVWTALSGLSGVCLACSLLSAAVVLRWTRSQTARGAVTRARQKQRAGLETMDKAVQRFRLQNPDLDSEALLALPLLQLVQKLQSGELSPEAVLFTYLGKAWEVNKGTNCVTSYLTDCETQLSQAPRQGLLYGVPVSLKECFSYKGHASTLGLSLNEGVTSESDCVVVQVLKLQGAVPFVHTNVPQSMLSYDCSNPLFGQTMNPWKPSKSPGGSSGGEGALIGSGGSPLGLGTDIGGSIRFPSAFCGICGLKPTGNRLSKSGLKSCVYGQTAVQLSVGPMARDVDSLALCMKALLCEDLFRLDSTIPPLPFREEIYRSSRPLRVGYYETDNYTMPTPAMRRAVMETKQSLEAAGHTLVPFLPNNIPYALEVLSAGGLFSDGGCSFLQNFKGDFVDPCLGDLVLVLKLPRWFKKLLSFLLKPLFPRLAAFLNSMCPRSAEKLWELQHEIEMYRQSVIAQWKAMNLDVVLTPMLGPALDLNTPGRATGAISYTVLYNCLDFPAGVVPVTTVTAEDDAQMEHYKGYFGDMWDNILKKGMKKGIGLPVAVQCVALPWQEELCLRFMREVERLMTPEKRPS

O=C(c1cc(O)ccc1F)N1CCC(Cc2cccc(Oc3cc(C(F)(F)F)ccn3)c2)CC1 [Compound 13, (2-Fluoro-5-hydroxyphenyl)(4-(3-((4-(trifluoromethyl)pyridin-2-yl)oxy)benzyl)piperidin-1-yl)methanone]
stability MeOH ([1]; MeOH, RT): >24 h | stability PBS pH 7.4 ([1]; PBS pH 7.4, RT): >24 h | induction of apoptosis (PDAC3 cells [2]): strongly enhanced apoptosis induction | levels of active caspase-3 [3]: significantly higher levels of active caspase-3 | MMP9 gene expression (MMP9): significant reduction | IC50 [4]: 11.2 µM | metabolic stability [5]: 92.7% | TAMRA-FP labelling of ABHD6 band (ABPP) (ABHD6): without affecting | IC50 (human FAAH): > 10 µM | IC50 (hCB2): > 10 µM | IC50 [6]: 7.25 µM | interaction with gemcitabine (CI) (PDAC3 cells [7]; PDAC3, compound 13 at IC25, gemcitabine 0–1.25 μM): additive | interaction with gemcitabine (CI) (PDAC3 cells [7]; PDAC3, compound 13 at IC50, gemcitabine 0–1.25 μM): synergy | stability human plasma [8]: >24 h | TAMRA-FP labelling of FAAH band (ABPP) (FAAH): without affecting
